Test results published in the supplement of paper PMC10627819.

Columns and labels:
S. pneumoniae D39V [1] = test: fitness (endpoint OD595 vs no drug) (fraction); higher = more growth
Procedure, shortened: (§1)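 Fitness was measured as bacterial growth in 384-well plates inoculated at OD595 0.01 (30 µl, or 55 µl for S. pneumoniae). Media were TSB, LB Lennox or CY, at 37 °C. OD595 was read every 30 min for 14 h and background-subtracted against the first reading. Fitness is OD595 at the transition into stationary phase divided by the robust mean of no-drug control wells, capped at 1.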

S. aureus DSM 20231 [2] = test: as above
Procedure, shortened: as §1

S. aureus Newman [3] = test: as above
Procedure, shortened: as §1

S. pneumoniae D39V [4] = test: Bliss interaction score (quartile over a dose matrix) (fitness difference); higher = more antagonism (negative = synergy)
Procedure, shortened: (§2)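 The Bliss score is observed fitness minus expected fitness, where the expected value is the product of single-drug fitness values inferred from combination data. Fitness is OD595 at entry into stationary phase normalised to the plate's robust no-drug mean and capped at 1. Scores are reported as quartiles spanning technical, biological and donor/recipient replicates.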

S. aureus DSM 20231 [5] = test: as above
Procedure, shortened: as §2

B. subtilis 168 = test: as above
Procedure, shortened: as §2

S. aureus Newman [6] = test: as above
Procedure, shortened: as §2
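Wherever Bliss interaction score (quartile over a dose matrix) is given: first quartile when negative (synergy) and third quartile when positive (antagonism).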
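Wherever fitness (endpoint OD595 vs no drug) is given: OD595 on entry to stationary phase over no-drug wells; at most 1.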

CO/N=C(\C(=O)N[C@@H]1C(=O)N2C(C(=O)[O-])=C(C[N+]3(C)CCCC3)CS[C@H]12)c1csc(N)n1 [Cefepime] + Cc1ncc([N+](=O)[O-])n1CCO [Metronidazole]
Details | fitness
S. aureus DSM 20231 [2], first compound 0.125 µg/mL, partner 0.625 µg/mL | 0.981
S. aureus DSM 20231 [2], first compound 0.125 µg/mL, partner 1.25 µg/mL | ≥ 1
S. aureus DSM 20231 [2], first compound 0.125 µg/mL, partner 2.5 µg/mL | ≥ 1
S. aureus DSM 20231 [2], first compound 0.25 µg/mL, partner 0.625 µg/mL | 0.958
S. aureus DSM 20231 [2], first compound 0.25 µg/mL, partner 1.25 µg/mL | ≥ 1
S. aureus DSM 20231 [2], first compound 0.25 µg/mL, partner 2.5 µg/mL | ≥ 1
S. aureus DSM 20231 [2], first compound 0.5 µg/mL, partner 0.625 µg/mL | 0.925
S. aureus DSM 20231 [2], first compound 0.5 µg/mL, partner 1.25 µg/mL | 0.958
S. aureus DSM 20231 [2], first compound 0.5 µg/mL, partner 2.5 µg/mL | 0.928
S. aureus Newman [3], first compound 0.125 µg/mL, partner 0.625 µg/mL | 0.942
S. aureus Newman [3], first compound 0.125 µg/mL, partner 0.781 µg/mL | 0.957
S. aureus Newman [3], first compound 0.125 µg/mL, partner 1.25 µg/mL | 0.922
S. aureus Newman [3], first compound 0.125 µg/mL, partner 1.562 µg/mL | 0.914
S. aureus Newman [3], first compound 0.125 µg/mL, partner 2.5 µg/mL | 0.957
S. aureus Newman [3], first compound 0.125 µg/mL, partner 3.124 µg/mL | 0.924
S. aureus Newman [3], first compound 0.25 µg/mL, partner 0.625 µg/mL | 0.855
S. aureus Newman [3], first compound 0.25 µg/mL, partner 0.781 µg/mL | 0.854
S. aureus Newman [3], first compound 0.25 µg/mL, partner 1.25 µg/mL | 0.876
S. aureus Newman [3], first compound 0.25 µg/mL, partner 1.562 µg/mL | 0.844
S. aureus Newman [3], first compound 0.25 µg/mL, partner 2.5 µg/mL | 0.814
S. aureus Newman [3], first compound 0.25 µg/mL, partner 3.124 µg/mL | 0.83
S. aureus Newman [3], first compound 0.5 µg/mL, partner 0.625 µg/mL | 0.799
S. aureus Newman [3], first compound 0.5 µg/mL, partner 0.781 µg/mL | 0.761
S. aureus Newman [3], first compound 0.5 µg/mL, partner 1.25 µg/mL | 0.752
S. aureus Newman [3], first compound 0.5 µg/mL, partner 1.562 µg/mL | 0.731
S. aureus Newman [3], first compound 0.5 µg/mL, partner 2.5 µg/mL | 0.749
S. aureus Newman [3], first compound 0.5 µg/mL, partner 3.124 µg/mL | 0.764
S. pneumoniae D39V [1], first compound 0.007 µg/mL, partner 1.25 µg/mL | ≥ 1
S. pneumoniae D39V [1], first compound 0.007 µg/mL, partner 2.5 µg/mL | ≥ 1
S. pneumoniae D39V [1], first compound 0.007 µg/mL, partner 5 µg/mL | ≥ 1
S. pneumoniae D39V [1], first compound 0.0078 µg/mL, partner 1.073 µg/mL | 0.998
S. pneumoniae D39V [1], first compound 0.0078 µg/mL, partner 2.145 µg/mL | 0.943
S. pneumoniae D39V [1], first compound 0.0078 µg/mL, partner 4.29 µg/mL | 0.988
S. pneumoniae D39V [1], first compound 0.014 µg/mL, partner 1.25 µg/mL | ≥ 1
S. pneumoniae D39V [1], first compound 0.014 µg/mL, partner 2.5 µg/mL | ≥ 1
S. pneumoniae D39V [1], first compound 0.014 µg/mL, partner 5 µg/mL | ≥ 1
S. pneumoniae D39V [1], first compound 0.0155 µg/mL, partner 1.073 µg/mL | 0.977
S. pneumoniae D39V [1], first compound 0.0155 µg/mL, partner 4.29 µg/mL | 0.968
S. pneumoniae D39V [1], first compound 0.028 µg/mL, partner 1.25 µg/mL | 0.957
S. pneumoniae D39V [1], first compound 0.028 µg/mL, partner 2.5 µg/mL | 0.964
S. pneumoniae D39V [1], first compound 0.028 µg/mL, partner 5 µg/mL | 0.912
S. pneumoniae D39V [1], first compound 0.031 µg/mL, partner 1.073 µg/mL | 0.939
S. pneumoniae D39V [1], first compound 0.031 µg/mL, partner 2.145 µg/mL | 0.9
S. pneumoniae D39V [1], first compound 0.031 µg/mL, partner 4.29 µg/mL | 0.942

Details | Bliss interaction score
B. subtilis 168 | 0.0894
S. aureus DSM 20231 [5] | 0.047
S. aureus Newman [6] | -0.0502
S. pneumoniae D39V [4] | 0.0181

Cn1nnc(-c2ccc(-c3ccc(N4C[C@H](CO)OC4=O)cc3F)cn2)n1 [Tedizolid] + CC1=C\[C@@H](O)CC(=O)Cc2nc(co2)C(=O)N2CCC=C2C(=O)O[C@H](C(C)C)[C@H](C)/C=C/C(=O)NC\C=C\1 [Virginiamycin M1]
fitness
Details | first compound 0.03125 µg/mL | first compound 0.0625 µg/mL | first compound 0.125 µg/mL | first compound 0.25 µg/mL | first compound 0.5 µg/mL
S. aureus DSM 20231 [2], partner 0.0625 µg/mL | – | 0.839 | 0.579 | 0.194 | –
S. aureus DSM 20231 [2], partner 0.125 µg/mL | – | 0.889 | 0.542 | 0.212 | –
S. aureus DSM 20231 [2], partner 0.25 µg/mL | – | 0.888 | – | 0.102 | –
S. aureus Newman [3], partner 0.0625 µg/mL | – | 0.965 | 0.814 | – | –
S. aureus Newman [3], partner 0.125 µg/mL | – | 0.97 | 0.823 | – | –
S. aureus Newman [3], partner 0.25 µg/mL | – | 0.997 | 0.843 | – | –
S. pneumoniae D39V [1], partner 0.5 µg/mL | 0.972 | 0.962 | 0.807 | – | –
S. pneumoniae D39V [1], partner 1 µg/mL | 0.978 | 0.973 | 0.807 | – | –
S. pneumoniae D39V [1], partner 2 µg/mL | 0.955 | 0.948 | 0.824 | 0.785 | 0.607

fitness, one replicate
Details | first compound 0.0625 µg/mL | first compound 0.125 µg/mL | first compound 0.25 µg/mL | first compound 0.5 µg/mL
S. aureus DSM 20231 [2], partner 0.5 µg/mL | 0.676 | 0.31 | 0.0481 | –
S. aureus DSM 20231 [2], partner 1 µg/mL | 0.681 | 0.327 | 0.0496 | –
S. aureus Newman [3], partner 0.5 µg/mL | 0.885 | 0.91 | 0.57 | –
S. aureus Newman [3], partner 1 µg/mL | 0.956 | 0.956 | 0.565 | –
S. aureus Newman [3], partner 2 µg/mL | 0.851 | 0.785 | 0.456 | –
S. pneumoniae D39V [1], partner 0.15 µg/mL | – | 0.905 | 0.835 | 0.534
S. pneumoniae D39V [1], partner 0.3 µg/mL | – | 0.892 | 0.818 | 0.505
S. pneumoniae D39V [1], partner 0.5 µg/mL | – | – | 0.838 | 0.659
S. pneumoniae D39V [1], partner 1 µg/mL | – | – | 0.771 | 0.523

Details | Bliss interaction score
B. subtilis 168 | -0.0674
S. aureus DSM 20231 [5] | -0.078
S. aureus Newman [6] | 0.0611
S. pneumoniae D39V [4] | 0.103

CC1(C)S[C@@H]2[C@H](NC(=O)[C@H](N)c3ccc(O)cc3)C(=O)N2[C@H]1C(=O)O [Amoxicillin] + Cc1ncc([N+](=O)[O-])n1CCO [Metronidazole]
Details | fitness
S. aureus DSM 20231 [2], first compound 0.0625 µg/mL, partner 0.625 µg/mL | 0.588
S. aureus DSM 20231 [2], first compound 0.125 µg/mL, partner 1.25 µg/mL | 0.428
S. aureus DSM 20231 [2], first compound 0.5 µg/mL, partner 0.625 µg/mL | 0.0108
S. aureus DSM 20231 [2], first compound 0.5 µg/mL, partner 1.25 µg/mL | 0.0138
S. aureus DSM 20231 [2], first compound 0.5 µg/mL, partner 2.5 µg/mL | 0.0153
S. aureus Newman [3], first compound 0.0625 µg/mL, partner 0.625 µg/mL | 0.835
S. aureus Newman [3], first compound 0.0625 µg/mL, partner 0.781 µg/mL | 0.922
S. aureus Newman [3], first compound 0.0625 µg/mL, partner 1.25 µg/mL | 0.906
S. aureus Newman [3], first compound 0.0625 µg/mL, partner 1.562 µg/mL | 0.917
S. aureus Newman [3], first compound 0.0625 µg/mL, partner 2.5 µg/mL | 0.87
S. aureus Newman [3], first compound 0.0625 µg/mL, partner 3.124 µg/mL | 0.913
S. aureus Newman [3], first compound 0.125 µg/mL, partner 0.625 µg/mL | 0.839
S. aureus Newman [3], first compound 0.125 µg/mL, partner 0.781 µg/mL | 0.952
S. aureus Newman [3], first compound 0.125 µg/mL, partner 1.25 µg/mL | 0.905
S. aureus Newman [3], first compound 0.125 µg/mL, partner 1.562 µg/mL | 0.972
S. aureus Newman [3], first compound 0.125 µg/mL, partner 2.5 µg/mL | 0.836
S. aureus Newman [3], first compound 0.125 µg/mL, partner 3.124 µg/mL | 0.957
S. aureus Newman [3], first compound 0.25 µg/mL, partner 0.625 µg/mL | 0.799
S. aureus Newman [3], first compound 0.25 µg/mL, partner 0.781 µg/mL | 0.945
S. aureus Newman [3], first compound 0.25 µg/mL, partner 1.25 µg/mL | 0.789
S. aureus Newman [3], first compound 0.25 µg/mL, partner 1.562 µg/mL | 0.951
S. aureus Newman [3], first compound 0.25 µg/mL, partner 2.5 µg/mL | 0.816
S. aureus Newman [3], first compound 0.25 µg/mL, partner 3.124 µg/mL | 0.929
S. pneumoniae D39V [1], first compound 0.0008 µg/mL, partner 1.073 µg/mL | 0.958
S. pneumoniae D39V [1], first compound 0.0008 µg/mL, partner 2.145 µg/mL | 0.946
S. pneumoniae D39V [1], first compound 0.0008 µg/mL, partner 4.29 µg/mL | 0.919
S. pneumoniae D39V [1], first compound 0.0015 µg/mL, partner 1.073 µg/mL | 0.972
S. pneumoniae D39V [1], first compound 0.0015 µg/mL, partner 1.25 µg/mL | 0.988
S. pneumoniae D39V [1], first compound 0.0015 µg/mL, partner 2.145 µg/mL | 0.926
S. pneumoniae D39V [1], first compound 0.0015 µg/mL, partner 2.5 µg/mL | ≥ 1
S. pneumoniae D39V [1], first compound 0.0015 µg/mL, partner 4.29 µg/mL | 0.941
S. pneumoniae D39V [1], first compound 0.0015 µg/mL, partner 5 µg/mL | 0.995
S. pneumoniae D39V [1], first compound 0.003 µg/mL, partner 1.073 µg/mL | 0.938
S. pneumoniae D39V [1], first compound 0.003 µg/mL, partner 1.25 µg/mL | 0.97
S. pneumoniae D39V [1], first compound 0.003 µg/mL, partner 2.145 µg/mL | 0.914
S. pneumoniae D39V [1], first compound 0.003 µg/mL, partner 2.5 µg/mL | 0.989
S. pneumoniae D39V [1], first compound 0.003 µg/mL, partner 4.29 µg/mL | 0.93
S. pneumoniae D39V [1], first compound 0.003 µg/mL, partner 5 µg/mL | 0.946

fitness, S. pneumoniae D39V [1], one replicate
Details | partner 1.25 µg/mL | partner 2.5 µg/mL | partner 5 µg/mL
first compound 0.0008 µg/mL | ≥ 1 | ≥ 1 | ≥ 1
first compound 0.006 µg/mL | 0.561 | 0.587 | 0.574

Details | Bliss interaction score
B. subtilis 168 | 0.0817
S. aureus DSM 20231 [5] | 0.0885
S. aureus Newman [6] | 0.0677
S. pneumoniae D39V [4] | -0.0259
